Read-outs that look alike come from different tables or passages of the source.
Columns and labels:
non-mutated CFTR = biological target: T1, non-mutated CFTR (Homo sapiens, UniProt P13569); experiment: Ussing chamber short-circuit current on lacrimal gland epithelial cells expressing non-mutated CFTR; type: cell-based
T1 construct: endogenous in cells; host or cells: human glandular (lacrimal gland) epithelial cells, polarised on Snapwell filters
Description: To study this action on the modulation of CFTR, the inventors have used the Ussing chamber method, invented by the Danish Hans H. Ussing at the end of the 1950s. This technique allows studying ionic exchanges through an epithelium, as they allow maintaining the tissue of interest in survival for a few hours under controlled conditions of temperature and medium. The positioning of the tissue between two half-chambers allows defining an apical compartment (corresponding to the lumen of the organ) and a basolateral compartment (corresponding to the blood compartment) and studying the exchanges between these two compartments via the tissue.
This technique is commonly used and it is particularly well-suited for a pharmacological approach of ionic transports and to search for molecules of therapeutic interest in the context of ionic secretions from epithelial cells. It consists in measuring the transepithelial current (called short-circuit and denoted Ise). Ise is expressed in amperes relative to the unit surface area of the epithelium (Ise in μA/cm2). The cells are cultured on a porous filter for 10 to 15 days at the liquid-liquid then air-liquid interface in order to mimic conditions close to in vivo. The transepithelial resistance is regularly measured during the culture. The higher this resistance (several hundred ohms), the more the epithelial tissue is contiguous, polarised and therefore tight. At the Air (apical side)—Liquid (basolateral side) interface, the epithelial cells polarise and form a tight mat that can be studied with the Ussing chamber technique. We have used a system with 6 vats from Physiologie Instrument@ enabling 6 experiments in parallel.
The inventors have prepared a 100 μM stock solution in DMSO.

basophils = experiment: Basophil activation test (Flow CAST kit), CD63 expression by flow cytometry after anti-FcεRI stimulation; type: cell-based, human; conditions: noscapine 10 μM, whole blood, FIG. 9
Description: These two cells intervene in the IgE-dependent allergic reaction; they express the high-affinity IgE receptor. Nevertheless, the mediators released by these cells during this activation are different for some of them. Moreover, basophils and especially mast cells intervene in innate immunity. Thus, basophils and mast cells have many characteristics in common and more particularly, the secretion of IL4 and IL13 which are known to induce the stimulation of collagen synthesis and the proliferation of fibroblasts responsible for fibrosis. Fibrosis can affect the Meibomian glands in dry eye and allergic eye. […]
It is designed for the in vitro diagnosis of the expression of the CD63 marker as a surface marker of activated basophils. The test is carried out on whole blood; flow cytometry allows quantifying the expression of CD63 at the surface of activated basophils. […]
This granularity may be due to irregularities inside or at the surface of the cells or to the density of the organelles that compose it (acess.ens-lyon.fr). Afterwards, fluorescence markers allow better characterising the different cell subpopulations (these markers are coupled with the differentiation clusters). […] The latter has been analysed in order to observe the expected results in the absence of stimulation and therefore of degranulation. […]

[1] = cited from earlier work

T1 sequence (P13569 whole entry, change not shown): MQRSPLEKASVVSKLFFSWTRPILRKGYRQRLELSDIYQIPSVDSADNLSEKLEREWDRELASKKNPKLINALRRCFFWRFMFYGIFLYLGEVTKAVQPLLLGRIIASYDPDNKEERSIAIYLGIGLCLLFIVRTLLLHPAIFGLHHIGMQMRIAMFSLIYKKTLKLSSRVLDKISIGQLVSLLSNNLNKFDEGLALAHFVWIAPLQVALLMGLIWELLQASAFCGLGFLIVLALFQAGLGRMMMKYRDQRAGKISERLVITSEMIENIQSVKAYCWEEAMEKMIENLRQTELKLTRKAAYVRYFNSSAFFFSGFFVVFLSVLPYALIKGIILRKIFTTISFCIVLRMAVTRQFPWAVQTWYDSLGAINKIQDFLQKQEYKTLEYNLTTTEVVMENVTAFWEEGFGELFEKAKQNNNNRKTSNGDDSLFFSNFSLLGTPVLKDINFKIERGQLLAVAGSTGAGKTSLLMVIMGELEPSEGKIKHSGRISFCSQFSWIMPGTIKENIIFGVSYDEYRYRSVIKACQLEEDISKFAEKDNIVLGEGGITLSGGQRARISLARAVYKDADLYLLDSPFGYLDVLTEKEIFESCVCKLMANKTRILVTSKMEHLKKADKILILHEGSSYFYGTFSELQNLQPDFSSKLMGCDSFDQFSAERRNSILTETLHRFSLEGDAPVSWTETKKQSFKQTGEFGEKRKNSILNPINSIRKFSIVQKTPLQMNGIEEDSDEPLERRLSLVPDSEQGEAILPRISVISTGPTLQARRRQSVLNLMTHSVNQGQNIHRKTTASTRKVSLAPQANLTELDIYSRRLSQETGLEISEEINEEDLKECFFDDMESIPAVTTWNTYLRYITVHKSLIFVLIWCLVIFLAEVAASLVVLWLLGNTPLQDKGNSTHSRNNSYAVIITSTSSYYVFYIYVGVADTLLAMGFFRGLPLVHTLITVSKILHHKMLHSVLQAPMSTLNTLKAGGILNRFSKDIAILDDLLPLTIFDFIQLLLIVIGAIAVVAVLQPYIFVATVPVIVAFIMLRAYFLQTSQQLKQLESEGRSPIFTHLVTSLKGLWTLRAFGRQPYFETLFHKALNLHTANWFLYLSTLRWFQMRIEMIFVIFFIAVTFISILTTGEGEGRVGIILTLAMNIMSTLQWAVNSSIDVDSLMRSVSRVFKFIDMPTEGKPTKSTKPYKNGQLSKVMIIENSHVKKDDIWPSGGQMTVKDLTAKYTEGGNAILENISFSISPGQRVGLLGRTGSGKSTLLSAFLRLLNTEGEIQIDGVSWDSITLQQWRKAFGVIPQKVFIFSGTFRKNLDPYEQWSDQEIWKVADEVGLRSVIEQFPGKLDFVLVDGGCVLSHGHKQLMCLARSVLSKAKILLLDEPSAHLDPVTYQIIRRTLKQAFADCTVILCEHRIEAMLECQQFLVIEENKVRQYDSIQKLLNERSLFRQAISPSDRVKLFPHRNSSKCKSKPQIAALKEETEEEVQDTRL

short-circuit current differential after addition of noscapine, apical side (non-mutated CFTR; 10 μM noscapine, non-mutated epithelial cells, apical side, switches from 16)	short-circuit current differential after addition of noscapine, second series (non-mutated CFTR; 10 μM noscapine, non-mutated lacrimal gland epithelial cells, printed apical side, switches from 6.5)	EC50 (non-mutated CFTR; apical pole, FIG. 2, read-out: EC50 activity for the apical pole)	EC50 (non-mutated CFTR; basal pole, FIG. 3, read-out: EC50 for the basal pole)	SMILES	inhibition of basophil degranulation caused by anti-FcεRI antibody (CD63+ CCR3+) (basophils)	solubility in organic solvents ([1]; benzene and acetone)	solubility in water ([1]; water)	effect of Inh172 on cellular potential (non-mutated CFTR; Inh172 10 μM, first series (apical side))	effect of Inh172 on cellular potential, second series (non-mutated CFTR; Inh172 10 μM, lacrimal gland epithelial cells)
more than 20 μA/cm2	more than 7.5 μA/cm2	3.42 µM	4.87 µM	COc1ccc2c(c1OC)C(=O)O[C@@H]2[C@H]1c2c(cc3c(c2OC)OCO3)CCN1C [noscapine, (3S)-6,7-dimethoxy-3-[(5R)-4-methoxy-6-methyl-7,8-dihydro-5H-[1,3]dioxolo[4,5-g]isoquinolin-5-yl]-3H-2-benzofuran-1-one]	blocks the activation of basophil degranulation	soluble in benzene and acetone	Insoluble in water	–	–
–	–	–	–	O=C(O)c1ccc(C=C2SC(=S)N(c3cccc(C(F)(F)F)c3)C2=O)cc1 [Inh172]	–	–	–	completely blocks the cellular potential	completely blocks the cellular potential

From patent US12465602B2, “Use of an opioid molecule for treating dry eye and eyes suffering from allergies” (H4 ORPHAN PHARMA, priority 2019, dated 2025)
